# Data as given in ChEMBL document CHEMBL5316290, “Targeted Protein Degradation Induced by HEMTACs Based on HSP90” (J Med Chem, 2023).
# The source made the active and inactive calls. The calls are words filed in the database; no cut-off is given here.
# Experiments:
# [1] = target: Protein cereblon/Cyclin-dependent kinase 4 (Mus musculus) (UniProt P30285+Q8C7D2); experiment: Protac activity at CRBN/CDK4 in mouse B16-F10 cells assessed as induction of CDK4 degradation at 0.05 uM incubated for 24 hrs by Western blot analysis; assay type: cell-based
# [2] = target: Protein cereblon/Cyclin-dependent kinase 6 (Mus musculus) (UniProt Q8C7D2+Q64261); experiment: Protac activity at CRBN/CDK6 in mouse B16-F10 cells assessed as induction of CDK4 degradation at 0.05 uM incubated for 24 hrs by Western blot analysis; assay type: cell-based
# A549 = experiment: Cytotoxicity against human A549 cells assessed as inhibition of cell growth incubated for 72 hrs by CCK-8 assay; assay type: functional, cell-based; settings: A549, 72 h
# HFF-1 = experiment: Cytotoxicity against human HFF-1 cells assessed as reduction of cell viability incubated for 72 hrs by CCK-8 assay; assay type: toxicity, cell-based; settings: hff-1, 72 h
# B16-F10 [3] = experiment: Cytotoxicity against mouse B16-F10 cells assessed as inhibition of cell growth incubated for 72 hrs by CCK-8 assay; assay type: functional, cell-based; settings: B16-F10, 72 h
# B16-F10 [4] = experiment: Induction of apoptosis in mouse B16-F10 cells assessed as live cells at 125 nM incubated for 48 hrs by Annexin V-FITC/PI staining based flow cytometry analysis (reference value: 92.85 %); assay type: functional
# A-375 = experiment: Cytotoxicity against human A-375 cells assessed as inhibition of cell growth incubated for 72 hrs by CCK-8 assay; assay type: functional, cell-based; settings: A-375, 72 h
# HepG2 = experiment: Cytotoxicity against human HepG2 cells assessed as inhibition of cell growth incubated for 72 hrs by CCK-8 assay; assay type: functional, cell-based; settings: HepG2, 72 h
# MDA-MB-231 = experiment: Cytotoxicity against human MDA-MB-231 cells assessed as inhibition of cell growth incubated for 72 hrs by CCK-8 assay; assay type: functional, cell-based; settings: MDA-MB-231, 72 h
# B16-F10 [5] = experiment: Induction of apoptosis in mouse B16-F10 cells assessed as early apoptotic cells at 125 nM incubated for 48 hrs by Annexin V-FITC/PI staining based flow cytometry analysis (reference value: 3.42%); assay type: functional
# B16-F10 [6] = experiment: Induction of apoptosis in mouse B16-F10 cells assessed as late apoptotic cells at 125 nM incubated for 48 hrs by Annexin V-FITC/PI staining based flow cytometry analysis (reference value: 1.97%); assay type: functional
# B16-F10 [7] = experiment: Induction of apoptosis in mouse B16-F10 cells assessed as dead cells at 125 nM incubated for 48 hrs by Annexin V-FITC/PI staining based flow cytometry analysis (reference value: 1.75%); assay type: functional
# B16-F10 [8] = experiment: Induction of apoptosis in mouse B16-F10 cells assessed as live cells at 250 nM incubated for 48 hrs by Annexin V-FITC/PI staining based flow cytometry analysis (reference value: 92.85 %); assay type: functional
# B16-F10 [9] = experiment: Induction of apoptosis in mouse B16-F10 cells assessed as early apoptotic cells at 250 nM incubated for 48 hrs by Annexin V-FITC/PI staining based flow cytometry analysis (reference value: 3.42%); assay type: functional
# B16-F10 [10] = experiment: Induction of apoptosis in mouse B16-F10 cells assessed as late apoptotic cells at 250 nM incubated for 48 hrs by Annexin V-FITC/PI staining based flow cytometry analysis (reference value: 1.97%); assay type: functional
# B16-F10 [11] = experiment: Induction of apoptosis in mouse B16-F10 cells assessed as dead cells at 250 nM incubated for 48 hrs by Annexin V-FITC/PI staining based flow cytometry analysis (reference value: 1.75%); assay type: functional
# B16-F10 [12] = experiment: Induction of cell cycle arrest in mouse B16-F10 cells assessed as accumulation of cells at G1 phase at 125 nM incubated for 24 hrs by RNase/PI staining based flow cytometry analysis (reference value: 68.89%); assay type: functional
# B16-F10 [13] = experiment: Induction of cell cycle arrest in mouse B16-F10 cells assessed as accumulation of cells at G2 phase at 125 nM incubated for 24 hrs by RNase/PI staining based flow cytometry analysis (reference value: 16.13%); assay type: functional
# B16-F10 [14] = experiment: Induction of cell cycle arrest in mouse B16-F10 cells assessed as accumulation of cells at S phase at 125 nM incubated for 24 hrs by RNase/PI staining based flow cytometry analysis (reference value: 12.45%); assay type: functional
# B16-F10 [15] = experiment: Induction of cell cycle arrest in mouse B16-F10 cells assessed as accumulation of cells at G1 phase at 250 nM incubated for 24 hrs by RNase/PI staining based flow cytometry analysis (reference value: 68.89%); assay type: functional
# B16-F10 [16] = experiment: Induction of cell cycle arrest in mouse B16-F10 cells assessed as accumulation of cells at G2 phase at 250 nM incubated for 24 hrs by RNase/PI staining based flow cytometry analysis (reference value: 16.13%); assay type: functional
# B16-F10 [17] = experiment: Induction of cell cycle arrest in mouse B16-F10 cells assessed as accumulation of cells at S phase at 250 nM incubated for 24 hrs by RNase/PI staining based flow cytometry analysis (reference value: 12.45%); assay type: functional
# [18] = Acute toxicity in zebra fish embryos incubated for 72 hrs; parameters: species or system Danio rerio; settings: zebrafish
# [19] = Toxicity in C57BL/6J mouse implanted with mouse B16-F10 cells at 20 mg/kg, ip administered once daily for 2 weeks and measured every 2 days; assay type: organism-based; settings: in vivo, 336 h
# [20] = target: HSP90/Cyclin-dependent kinase 4 (Mus musculus) (UniProt P30285+P07901+P11499); experiment: HEMTAC activity at HSP90/CDK4 in mouse B16-F10 cells assessed as induction of CDK4 degradation at 0.01 to 1 uM measured after 24 hrs by Western blot analysis; assay type: cell-based; settings: dose 0.01-1 µM
# [21] = target: HSP90/Cyclin-dependent kinase 6 (Mus musculus) (UniProt P07901+Q64261+P11499); experiment: HEMTAC activity at HSP90/CDK6 in mouse B16-F10 cells assessed as induction of […] degradation at 0.01 to 1 uM measured after 24 hrs by Western blot analysis; assay type: cell-based; settings: dose 0.01-1 µM
# [22] = target: Heat shock protein HSP 90-alpha (Homo sapiens, UniProt P07900); experiment: Binding affinity to CM5 sensor chip immobilized human HSP90alpha assessed as dissociation constant by SPR analysis
# [23] = target: HSP90/Cyclin-dependent kinase 4 (Mus musculus, UniProt P07901+P11499+P30285); experiment: HEMTAC activity at HSP90/CDK4 in mouse B16-F10 cells assessed as induction of CDK4 degradation incubated for 24 hrs by Western blot analysis; assay type: cell-based
# [24] = target: HSP90/Cyclin-dependent kinase 6 (Mus musculus, UniProt P07901+P11499+Q64261); experiment: HEMTAC activity at HSP90/CDK6 in mouse B16-F10 cells assessed as induction of […] degradation incubated for 24 hrs by Western blot analysis; assay type: cell-based
# Protein cereblon/Cyclin-dependent kinase 4 (Mus musculus), sequence (P30285 whole entry, looked up): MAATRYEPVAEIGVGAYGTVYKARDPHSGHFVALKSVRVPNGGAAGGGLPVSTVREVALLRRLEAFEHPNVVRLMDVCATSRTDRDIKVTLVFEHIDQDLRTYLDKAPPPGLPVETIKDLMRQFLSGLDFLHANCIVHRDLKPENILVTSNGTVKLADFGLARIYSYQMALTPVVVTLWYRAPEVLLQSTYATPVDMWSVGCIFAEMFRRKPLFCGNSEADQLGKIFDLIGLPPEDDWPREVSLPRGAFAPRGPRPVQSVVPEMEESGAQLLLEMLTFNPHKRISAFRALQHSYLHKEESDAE
# Protein cereblon/Cyclin-dependent kinase 4 (Mus musculus), sequence (Q8C7D2 whole entry, looked up): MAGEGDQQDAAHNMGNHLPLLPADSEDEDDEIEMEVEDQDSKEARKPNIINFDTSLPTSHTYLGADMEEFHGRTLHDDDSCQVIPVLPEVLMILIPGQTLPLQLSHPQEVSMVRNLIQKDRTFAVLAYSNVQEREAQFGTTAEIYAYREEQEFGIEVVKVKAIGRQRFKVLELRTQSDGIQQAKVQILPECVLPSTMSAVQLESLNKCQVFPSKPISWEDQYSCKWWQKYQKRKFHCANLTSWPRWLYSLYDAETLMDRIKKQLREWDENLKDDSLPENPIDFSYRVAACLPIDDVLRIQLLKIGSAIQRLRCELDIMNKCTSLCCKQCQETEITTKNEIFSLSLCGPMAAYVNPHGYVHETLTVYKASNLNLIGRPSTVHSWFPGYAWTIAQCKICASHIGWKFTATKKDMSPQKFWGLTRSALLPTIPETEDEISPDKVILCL
Structure (SMILES),IC50 (A549),Activity (HFF-1),IC50 (B16-F10 [3]),IC50 (A-375),IC50 (HepG2),IC50 (MDA-MB-231),Kd [22],EC50 [23],EC50 [24],also measured
CC(=O)c1c(C)c2cnc(Nc3ccc(N4CCN(CCCCNC(=O)COc5cccc6c5C(=O)N(C5CCC(=O)NC5=O)C6=O)CC4)cn3)nc2n(C2CCCC2)c1=O (configuration not stated),–,–,–,–,–,–,–,–,–,Activity [1]: Active; Activity [2]: Active
COc1c(C)cnc(Cn2cnc3c(Cl)nc(N)nc32)c1C [BIIB021],0.134 µM,Toxic,0.176 µM,0.253 µM,0.113 µM,0.339 µM,–,–,–,Activity (B16-F10 [4]): 78.06%; Activity (B16-F10 [5]): 13.64%; Activity (B16-F10 [6]): 6.27%; Activity (B16-F10 [7]): 2.03%; Activity (B16-F10 [8]): 68.27%; Activity (B16-F10 [9]): 16.92%; Activity (B16-F10 [10]): 12.55%; Activity (B16-F10 [11]): 2.26%; Activity (B16-F10 [12]): 73.13%; Activity (B16-F10 [13]): 14.09%; Activity (B16-F10 [14]): 12.26%; Activity (B16-F10 [15]): 77.76%; Activity (B16-F10 [16]): 18.95%; Activity (B16-F10 [17]): 2.62%; LC50 at 72 h [18]: < 1 µM; Activity [19]: Non-Toxic
COc1c(C)cnc(Cn2cc(C#CCCn3cc(CNC(=O)CN4CCN(c5ccc(Nc6ncc7c(C)c(C(C)=O)c(=O)n(C8CCCC8)c7n6)nc5)CC4)nn3)c3c(Cl)nc(NC(C)=O)nc32)c1C,–,–,–,–,–,–,–,–,–,Activity [20]: inactive; Activity [21]: inactive
COc1c(C)cnc(Cn2cc(C#CCCn3cc(C(=O)NCCOCCNC(=O)CN4CCN(c5ccc(Nc6ncc7c(C)c(C(C)=O)c(=O)n(C8CCCC8)c7n6)nc5)CC4)nn3)c3c(Cl)nc(N)nc32)c1C,8.89 µM,Non-Toxic,7.88 µM,6.34 µM,3.76 µM,1.85 µM,0.306 µM,> 0.5 µM,0.478 µM,–
COc1c(C)cnc(Cn2cc(C#CCCn3cc(C(=O)N4CCN(c5ccc(Nc6ncc7c(C)c(C(C)=O)c(=O)n(C8CCCC8)c7n6)nc5)CC4)nn3)c3c(Cl)nc(N)nc32)c1C,2.44 µM,Non-Toxic,0.546 µM,0.293 µM,1.71 µM,> 10 µM,0.46 µM,0.11 µM,0.105 µM,–
COc1c(C)cnc(Cn2cc(C#CCCNC(=O)CN3CCN(c4ccc(Nc5ncc6c(C)c(C(C)=O)c(=O)n(C7CCCC7)c6n5)nc4)CC3)c3c(Cl)nc(N)nc32)c1C,0.607 µM,Non-Toxic,0.821 µM,0.906 µM,0.547 µM,> 10 µM,0.00839 µM,0.096 µM,0.088 µM,–
CC(=O)c1c(C)c2cnc(Nc3ccc(N4CCNCC4)cn3)nc2n(C2CCCC2)c1=O [PALBOCICLIB],> 10 µM,Non-Toxic,> 10 µM,> 10 µM,> 10 µM,> 10 µM,–,–,–,Activity (B16-F10 [4]): 86.8%; Activity (B16-F10 [5]): 2.55%; Activity (B16-F10 [6]): 5.31%; Activity (B16-F10 [7]): 5.34%; Activity (B16-F10 [8]): 89.12%; Activity (B16-F10 [9]): 2.53%; Activity (B16-F10 [10]): 5.51%; Activity (B16-F10 [11]): 2.84%; Activity (B16-F10 [12]): 72.84%; Activity (B16-F10 [13]): 13.57%; Activity (B16-F10 [14]): 13.29%; Activity (B16-F10 [15]): 74.4%; Activity (B16-F10 [16]): 15.63%; Activity (B16-F10 [17]): 9.98%; LC50 at 72 h [18]: > 100 µM
COc1c(C)cnc(Cn2cc(C#CCCn3cc(C(=O)NCCNC(=O)CN4CCN(c5ccc(Nc6ncc7c(C)c(C(C)=O)c(=O)n(C8CCCC8)c7n6)nc5)CC4)nn3)c3c(Cl)nc(N)nc32)c1C,> 10 µM,Non-Toxic,6.82 µM,7.64 µM,> 10 µM,3.63 µM,0.0675 µM,0.446 µM,0.325 µM,–
COc1c(C)cnc(Cn2cc(C#CCCn3cc(C(=O)NCCOCCOCCNC(=O)CN4CCN(c5ccc(Nc6ncc7c(C)c(C(C)=O)c(=O)n(C8CCCC8)c7n6)nc5)CC4)nn3)c3c(Cl)nc(N)nc32)c1C,3.55 µM,Non-Toxic,1 µM,1.84 µM,2.54 µM,1.14 µM,0.0187 µM,0.268 µM,0.245 µM,–
